Test results: US20230374025A1, “FGFR INHIBITOR COMPOUND AND USE THEREOF” (SHENZHEN KANGSU PHARMACEUTICAL TECHNOLOGY CO., LTD., priority 2021, published 2023)

Legend:
Assay type in all cases: biochemical
[1] = target: T1, FGFR2 (Homo sapiens, UniProt P21802); assay: Assay II: inhibitory activity against wild-type FGFR (HTRF KinEASE-TK); conditions: ATP 50 μM, substrate TK 1 μM
T1 construct: purchased Carna 08-134
Description: (§1) Assay II: Determination of Inhibitory Activity Against Wild-Type FGFR
(§2) 1. Reagents and Equipment
(§3) 2. Experimental Steps PGP-5T
(§4) 2.1 Preparation of 1× Kinase Reaction Buffer:
(§5) 1× Kinase reaction buffer was formulated with 1× volume of 5× kinase reaction buffer and 4× volume of water; 5 mM MgCl2; and 1 mM DTT.
(§6) 2.3 Screening of Compounds:
(§7) 1. Diluting a compound 4-fold in a dilution plate with DMSO, with a starting compound concentration of 2 mM.
(§8) 2. Diluting the compound 40-fold into 1× kinase reaction buffer and shaking it on a shaker for 20 minutes.
(§9) 3. Formulating 2×FGFR1/FGFR2/FGFR3 with 1× of enzyme reaction buffer.
(§10) 4. Adding 2 μl FGFR1/FGFR2/FGFR3 kinase (formulated in step 3) to each well of the reaction plate.
(§11) 5. Adding 1 μl of the compound diluted in buffer to each well, sealing the plate with a sealing membrane and centrifuging the plate at 1000 g for 30 seconds and leaving it at room temperature for 10 minutes.
(§12) 6. Formulating 2.5×TK-substrate-biotin and ATP mixture with 1× enzyme reaction buffer and add 2 μl of K-substrate-biotin/ATP mixture to the reaction plate.
(§13) 7. Sealing the plate with a sealing membrane and centrifuging the plate at 1000 g for 30 seconds and allowing it to react at room temperature for 50 minutes.
(§14) 8. Formulating 4× Sa-XL 665 (250 nM) with HTRF assay buffer.
(§15) 9. Adding 5 μl Sa-XL 665 and 5 μl TK-Antibody-Cryptate to each well, centrifuging it at 1000 g for 30 seconds, and allowing it to react for 1 hour at room temperature.
(§16) 10. Reading fluorescence signals at 615 nm (Cryptate) and 665 nm (XL665) with Biotek.
(§17) 3.1 Calculation of the ratio for each well: the ratio was calculated as 665/615 nm.
(§18) 3.3 Calculation of IC50 and plotting of inhibition curves for the compounds.
(§19) The IC50 (half inhibition concentration) of a compound was obtained using the following non-linear fitting equation, wherein data analysis was performed using Graphpad 6.0 software.
(§20) Y=Bottom+(Top−Bottom)/(1+10^((Log IC50−X)*Hill Slope)) • X: log value of compound concentration; and Y: inhibition rate (% inh)
(§21) 3.4 Validation of Results
(§22) Data were exported from Envision and analyzed manually. The ratios were converted to inhibition rates and IC50 was calculated by Prism GraphPad 6.0 from the inhibition rates. IC50 was calculated again by the ratios to verify accuracy of the results.

[2] = target: T2, FGFR3 (Homo sapiens, UniProt P22607); assay: as above; conditions: ATP 50 μM, substrate TK 1 μM
T2 construct: purchased Carna 08-135
Description: as §1, §2, §3, §4, §5, §6, §7, §8, §9, §10, §11, §12, §13, §14, §15, §16, §17, §18, §19, §20, §21, §22

[3] = target: T3, FGFR1 (Homo sapiens, UniProt P11362); assay: as above; conditions: ATP 50 μM, substrate TK 1 μM
T3 construct: purchased Carna 08-133
Description: as §1, §2, §3, §4, §5, §6, §7, §8, §9, §10, §11, §12, §13, §14, §15, §16, §17, §18, §19, §20, §21, §22

[4] = target: T4, FGFR1 V561M (Homo sapiens, UniProt P11362, V561M); assay: Assay I: inhibitory activity against FGFR mutants (HTRF KinEASE-TK); conditions: ATP 5 μM, substrate TK 1 μM
T4 construct: purchased Signalchem F04-13G
How it was run: (§23)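 HTRF KinEASE-TK on FGFR mutant kinases in buffer with 5 mM MgCl2, 1 mM DTT; compound 4-fold serial dilutions (2 mM DMSO start) preincubated 10 min, then TK-substrate-biotin/ATP, 50 min at room temperature. 665/615 nm ratio converted to % inhibition; IC50 from four-parameter fit.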

[5] = target: T5, FGFR2 V564F (Homo sapiens, UniProt P21802, V564F); assay: as above; conditions: ATP 10 μM, substrate TK 1 μM
T5 construct: purchased Signalchem F05-12FG
How it was run: as §23

[6] = target: T6, FGFR3 V555M (Homo sapiens, UniProt P22607, V555M); assay: as above; conditions: ATP 20 μM, substrate TK 1 μM
T6 construct: purchased Signalchem F06-12GG
How it was run: as §23

[7] = target: T7, VEGFR2 (Homo sapiens, UniProt P35968); assay: Assay I: VEGFR2 kinase inhibition (HTRF KinEASE-TK); conditions: ATP 5 μM, substrate TK 1 μM
T7 construct: purchased Carna 08-191
How it was run: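 HTRF KinEASE-TK assay: kinase preincubated 10 min at room temperature with 4-fold compound dilutions (2 mM DMSO starting stock), then TK-substrate-biotin/ATP added for 50 min at room temperature in buffer with 5 mM MgCl2, 1 mM DTT. 665/615 nm ratio converted to % inhibition; IC50 by four-parameter fit.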

T3 sequence (P11362 22-822): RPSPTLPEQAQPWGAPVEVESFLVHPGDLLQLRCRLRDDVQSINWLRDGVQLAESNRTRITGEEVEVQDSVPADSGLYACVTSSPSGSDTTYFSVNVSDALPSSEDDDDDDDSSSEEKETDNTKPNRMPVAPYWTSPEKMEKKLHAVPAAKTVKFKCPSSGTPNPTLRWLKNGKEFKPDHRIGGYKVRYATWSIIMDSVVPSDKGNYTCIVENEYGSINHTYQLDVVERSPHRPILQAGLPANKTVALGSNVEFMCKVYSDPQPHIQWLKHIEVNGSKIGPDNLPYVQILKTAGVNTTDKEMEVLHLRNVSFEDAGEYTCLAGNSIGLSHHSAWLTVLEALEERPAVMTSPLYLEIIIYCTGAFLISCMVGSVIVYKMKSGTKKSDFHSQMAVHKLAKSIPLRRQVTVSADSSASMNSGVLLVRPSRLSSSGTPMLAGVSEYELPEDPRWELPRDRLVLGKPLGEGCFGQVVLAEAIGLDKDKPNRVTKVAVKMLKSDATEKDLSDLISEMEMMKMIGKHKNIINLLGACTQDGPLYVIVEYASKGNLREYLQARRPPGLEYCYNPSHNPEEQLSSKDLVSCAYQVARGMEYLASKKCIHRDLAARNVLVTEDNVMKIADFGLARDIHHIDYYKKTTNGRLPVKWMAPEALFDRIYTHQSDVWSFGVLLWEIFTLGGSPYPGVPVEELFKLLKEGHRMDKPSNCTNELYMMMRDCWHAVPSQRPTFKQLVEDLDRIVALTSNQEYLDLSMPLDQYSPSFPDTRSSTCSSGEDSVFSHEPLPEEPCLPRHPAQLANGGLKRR
T4 sequence (P11362 22-822 V561M): as the sequence (P11362 22-822) above, with V540M counted along it
T5 sequence (P21802 22-821 V564F): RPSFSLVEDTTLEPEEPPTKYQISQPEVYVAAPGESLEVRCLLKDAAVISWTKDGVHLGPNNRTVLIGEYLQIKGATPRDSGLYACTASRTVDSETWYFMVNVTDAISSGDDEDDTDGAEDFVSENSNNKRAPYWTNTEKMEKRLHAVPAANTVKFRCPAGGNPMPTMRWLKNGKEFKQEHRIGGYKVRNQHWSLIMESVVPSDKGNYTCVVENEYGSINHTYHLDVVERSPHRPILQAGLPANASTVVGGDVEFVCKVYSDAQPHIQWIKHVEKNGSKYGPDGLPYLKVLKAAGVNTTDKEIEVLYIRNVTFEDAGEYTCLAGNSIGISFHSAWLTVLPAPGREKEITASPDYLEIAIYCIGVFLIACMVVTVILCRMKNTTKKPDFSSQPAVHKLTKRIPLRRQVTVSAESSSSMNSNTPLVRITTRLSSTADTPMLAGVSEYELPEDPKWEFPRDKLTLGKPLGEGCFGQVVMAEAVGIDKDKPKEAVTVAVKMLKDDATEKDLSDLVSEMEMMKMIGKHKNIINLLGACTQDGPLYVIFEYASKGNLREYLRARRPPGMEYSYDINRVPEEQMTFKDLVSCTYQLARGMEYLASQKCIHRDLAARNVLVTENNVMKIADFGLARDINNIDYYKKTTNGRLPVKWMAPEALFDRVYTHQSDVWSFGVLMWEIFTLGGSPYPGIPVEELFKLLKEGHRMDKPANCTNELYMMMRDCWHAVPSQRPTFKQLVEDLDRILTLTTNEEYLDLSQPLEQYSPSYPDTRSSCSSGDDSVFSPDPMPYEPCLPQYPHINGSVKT
T1 sequence (P21802 22-821): as the sequence (P21802 22-821 V564F) above, with F543V counted along it
T2 sequence (P22607 23-806): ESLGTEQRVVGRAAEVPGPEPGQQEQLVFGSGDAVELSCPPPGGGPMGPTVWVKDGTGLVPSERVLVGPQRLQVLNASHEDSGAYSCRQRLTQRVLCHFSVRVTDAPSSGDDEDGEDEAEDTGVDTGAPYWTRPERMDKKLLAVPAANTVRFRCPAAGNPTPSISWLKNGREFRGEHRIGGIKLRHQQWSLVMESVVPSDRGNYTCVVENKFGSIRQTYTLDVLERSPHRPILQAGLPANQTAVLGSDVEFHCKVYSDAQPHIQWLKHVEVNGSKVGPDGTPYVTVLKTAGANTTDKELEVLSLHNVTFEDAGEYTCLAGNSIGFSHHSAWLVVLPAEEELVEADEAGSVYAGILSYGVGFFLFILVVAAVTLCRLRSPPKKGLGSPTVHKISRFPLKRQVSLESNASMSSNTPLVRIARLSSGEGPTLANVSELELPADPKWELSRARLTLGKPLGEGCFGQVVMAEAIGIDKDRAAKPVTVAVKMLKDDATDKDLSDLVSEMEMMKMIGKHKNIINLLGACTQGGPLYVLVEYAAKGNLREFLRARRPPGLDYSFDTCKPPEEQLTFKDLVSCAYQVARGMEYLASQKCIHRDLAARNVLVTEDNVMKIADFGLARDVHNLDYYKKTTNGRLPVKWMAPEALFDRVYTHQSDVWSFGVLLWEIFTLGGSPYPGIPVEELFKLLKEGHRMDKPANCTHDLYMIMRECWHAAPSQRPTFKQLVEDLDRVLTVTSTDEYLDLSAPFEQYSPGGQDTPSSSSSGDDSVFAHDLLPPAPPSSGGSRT
T6 sequence (P22607 397-806 V555M limits assumed): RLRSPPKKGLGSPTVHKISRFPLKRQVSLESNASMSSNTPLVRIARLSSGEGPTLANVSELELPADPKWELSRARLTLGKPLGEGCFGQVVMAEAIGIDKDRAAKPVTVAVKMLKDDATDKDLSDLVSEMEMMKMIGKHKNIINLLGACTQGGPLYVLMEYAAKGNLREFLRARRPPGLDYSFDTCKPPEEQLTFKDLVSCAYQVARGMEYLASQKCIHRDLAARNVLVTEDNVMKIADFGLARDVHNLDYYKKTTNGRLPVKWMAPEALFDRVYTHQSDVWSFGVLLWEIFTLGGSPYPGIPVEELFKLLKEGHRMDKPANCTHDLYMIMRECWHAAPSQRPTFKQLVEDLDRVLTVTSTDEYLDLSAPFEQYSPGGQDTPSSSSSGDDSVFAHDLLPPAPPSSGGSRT
T7 sequence (P35968 20-1356): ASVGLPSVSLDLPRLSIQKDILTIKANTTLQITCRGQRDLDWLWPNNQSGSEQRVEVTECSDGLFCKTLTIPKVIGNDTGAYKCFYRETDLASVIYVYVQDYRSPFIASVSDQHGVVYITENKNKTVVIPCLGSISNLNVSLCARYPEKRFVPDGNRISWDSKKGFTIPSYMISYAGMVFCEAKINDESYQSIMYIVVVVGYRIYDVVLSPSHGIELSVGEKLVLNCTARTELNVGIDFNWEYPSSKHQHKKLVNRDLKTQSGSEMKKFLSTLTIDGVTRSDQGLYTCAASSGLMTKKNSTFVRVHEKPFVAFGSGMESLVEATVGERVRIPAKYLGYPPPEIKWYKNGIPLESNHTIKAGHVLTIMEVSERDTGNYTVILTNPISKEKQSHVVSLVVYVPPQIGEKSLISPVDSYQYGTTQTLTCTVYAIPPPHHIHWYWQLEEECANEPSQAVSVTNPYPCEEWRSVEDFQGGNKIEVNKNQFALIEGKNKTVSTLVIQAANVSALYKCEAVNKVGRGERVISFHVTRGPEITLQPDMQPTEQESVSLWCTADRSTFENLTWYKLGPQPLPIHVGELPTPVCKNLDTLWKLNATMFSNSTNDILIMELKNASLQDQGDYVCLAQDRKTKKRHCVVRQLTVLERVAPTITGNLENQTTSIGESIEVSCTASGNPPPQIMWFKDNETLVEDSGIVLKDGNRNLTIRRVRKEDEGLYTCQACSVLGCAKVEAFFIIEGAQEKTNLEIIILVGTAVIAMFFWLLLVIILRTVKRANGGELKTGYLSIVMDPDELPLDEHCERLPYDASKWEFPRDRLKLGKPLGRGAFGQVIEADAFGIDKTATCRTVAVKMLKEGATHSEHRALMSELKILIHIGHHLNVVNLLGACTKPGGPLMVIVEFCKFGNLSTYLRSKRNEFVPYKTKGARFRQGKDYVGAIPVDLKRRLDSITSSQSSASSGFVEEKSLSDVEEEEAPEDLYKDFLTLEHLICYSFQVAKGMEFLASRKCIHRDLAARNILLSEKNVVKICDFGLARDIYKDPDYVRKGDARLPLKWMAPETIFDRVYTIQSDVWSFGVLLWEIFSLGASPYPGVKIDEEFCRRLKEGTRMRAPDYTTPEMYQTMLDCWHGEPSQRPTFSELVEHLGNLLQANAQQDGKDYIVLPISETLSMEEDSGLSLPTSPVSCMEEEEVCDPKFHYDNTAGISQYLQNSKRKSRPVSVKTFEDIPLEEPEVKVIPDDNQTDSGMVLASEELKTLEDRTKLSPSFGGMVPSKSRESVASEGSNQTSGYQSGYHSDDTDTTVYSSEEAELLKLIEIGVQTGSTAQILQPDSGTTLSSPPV

IC50 [1]	IC50 [2]	IC50 [3]	IC50 [4]	IC50 [5]	IC50 [6]	IC50 [7]	SMILES
2.8 nM	4.5 nM	4.1 nM	0.33 nM	0.36 nM	0.45 nM	2.1 nM	CC(Oc1ccc2[nH]nc(-c3nc4c([nH]3)CN(C(=O)N3CCOCC3)C4)c2c1)c1c(Cl)cncc1Cl (stereo not shown) [Compound 8, (2-(5-(1-(3,5-dichloropyridin-4-yl)ethoxy)-1H-indazol-3-yl)-4,6-dihydropyrrolo[3,4-d]imidazol-5(1H)-yl)(morpholinyl)ketone]
2.2 nM	3.4 nM	3.1 nM	0.2 nM	0.33 nM	0.35 nM	2.4 nM	CC(Oc1ccc2[nH]nc(-c3nc4c([nH]3)CN(C(=O)N3CC[C@H](O)C3)C4)c2c1)c1c(Cl)cncc1Cl (stereo partly drawn) [Compound 10, (2-(5-(1-(3,5-dichloropyridin-4-yl)ethoxy)-1H-indazol-3-yl)-4,6-dihydropyrrolo[3,4-d]imidazol-5(1H)-yl)((S)-3-hydroxypyrrolidin-1-yl)ketone]
2.1 nM	3.8 nM	1.8 nM	0.58 nM	0.36 nM	0.23 nM	0.75 nM	CC(Oc1ccc2[nH]nc(-c3nc4c([nH]3)CN(C(=O)N3CCN(C)CC3)CC4)c2c1)c1c(Cl)cncc1Cl (stereo not shown) [Compound 5, (2-(5-(1-(3,5-dichloropyridin-4-yl)ethoxy)-1H-indazol-3-yl)-3,4,6,7-tetrahydro-5H-imidazo[4,5-c]pyridin-5-yl)(4-methylpiperazin-1-yl)ketone]
2.9 nM	4.1 nM	2.7 nM	0.26 nM	0.34 nM	0.34 nM	1 nM	CC(Oc1ccc2[nH]nc(-c3nc4c([nH]3)CN(C(=O)N3CCN(C)CC3)C4)c2c1)c1c(Cl)cncc1Cl (stereo not shown) [Compound 1, (2-(5-(1-(3,5-dichloropyridin-4-yl)ethoxy)-1H-indazol-3-yl)-4,6-dihydropyrrolo[3,4-d]imidazol-5(1H)-yl)(4-methylpiperazin-1-yl)ketone]

The next lines start with the compound.

SMILES	IC50 [1]	IC50 [2]	IC50 [3]	IC50 [4]	IC50 [5]	IC50 [6]	IC50 [7]
CC(Oc1ccc2[nH]nc(-c3nc4c([nH]3)CN(C)C4)c2c1)c1c(Cl)cncc1Cl (stereo not shown) [Compound 11, 5-(1-(3,5-dichloropyridin-4-yl)ethoxy)-3-(5-methyl-1,4,5,6-tetrahydropyrrolo[3,4-d]imidazol-2-yl)-1H-indazole]	0.95 nM	0.6 nM	1.7 nM	0.46 nM	1.3 nM	1.1 nM	25.6 nM
C[C@@H](Oc1ccc2[nH]nc(-c3nc4c([nH]3)CN(C3CCCN(C)C3)C4)c2c1)c1c(Cl)cncc1Cl (stereo partly drawn) [Compound 38, 5-((R)-1-(3,5-Dichloropyridin-4-yl)ethoxy)-3-(5-(1-methylpiperidin-3-yl)-1,4,5,6-tetrahydropyrrolo[3,4-d]imidazol-2-yl)-1H-indazole]	–	–	–	0.75 nM	0.19 nM	0.15 nM	15.7 nM
CC(Oc1ccc2[nH]nc(-c3nc4c([nH]3)CN(C(=O)CN3CCC(C#N)C3)C4)c2c1)c1c(Cl)cncc1Cl (stereo not shown) [Compound 32, 1-(2-(2-(5-(1-(3,5-dichloropyridin-4-yl)ethoxy)-1H-indazol-3-yl)-4,6-dihydropyrrolo[3,4-d]imidazol-5(1H)-yl)-2-oxoethyl)pyrrolidine-3-carbonitrile]	–	–	–	1.1 nM	1.2 nM	0.19 nM	3.7 nM
